Assay [1] concerns U937 cells. The assay can be described thus: ATP bioluminescence release assay, U937. In kind it is cell-based, human. To be noted: HBD-3 titrations, bioluminescence for 30 min, PBS with 0.1% BSA, concentration-dependent. As for the experimental part:
(§1) ATP release assay was conducted using an ATP bioluminescence assay kit (Roche Diagnostics, Mannheim, Germany). U937 and HeLa cells were suspended at 1×10^6 cells/mL in PBS containing 0.1% (w/v) BSA, and mixed with luciferase/luciferin reagent at a ratio of 4:5. The mixture was added to HBD-3 samples and the level of ATP release measured immediately as bioluminescence emission signal intensity for 30 min with 30 s intervals.

The nature of assay [2]: ATP-encapsulated liposome leakage assay, PC only. To be noted: bioluminescence, normalised to HEPES and Triton X-100. The protocol:
(§2) Liposomes were generated as described previously using natural PI(4,5)P2 (porcine brain, in chloroform:methanol:water at 20:9:1 molar ratio) and PC (chicken egg, in chloroform) purchased from Avanti Polar Lipids. PC only or PC:PI(4,5)P2 (95:5 molar ratio) solutions were dried under a stream of nitrogen gas followed by overnight vacuum-drying. The lipid films were rehydrated to a final concentration of 5 mg/mL in 20 mM HEPES (pH 7.2) containing 5 mg/mL adenosine-5-triphosphate disodium salt (ATP; Sigma-Aldrich) at 37°C for 1 h. After three subsequent cycles of freezing (liquid nitrogen) and thawing (25°C), multilamellar liposomes were extruded 15–20 times through a mini-extruder (Avanti Polar Lipids). Free ATP was removed by three centrifugal washes with 20 mM HEPES at 16,500 g prior to the ATP release assay. Liposomes treated with 1% Triton X-100 were included as positive control and assigned as total lysis, whereas HEPES only control served as background reading. The level of ATP release at a particular time point was determined by quotient of the corrected reading (after subtracting background) of the sample at that time point and corrected reading of total lysis, as per the following equation: % Lysist=Samplet−HEPESt/Triton X−HEPES×100

The next assay concerns HeLa cells. The assay can be described thus: ATP bioluminescence release assay, HeLa. It is filed as cell-based, human. The note with it: HBD-3 titrations, bioluminescence for 30 min, PBS with 0.1% BSA, concentration-dependent. As for the experimental part:
as §1

Another assay concerns U937 and HeLa cells. Kind of assay: Confocal laser scanning microscopy of membrane blebbing. In kind it is cell-based, human. The note with it: 15 μM HBD-3, 15 min after addition, PKH67 and PI staining. As for the experimental part: Live imaging was performed on a Zeiss LSM-780 confocal microscope using a 63× oil immersion objective in a 37°C incubator with 5% CO2. Adherent HeLa cells were cultured overnight on coverslips while suspension U937 cells were immobilised onto 0.01% (w/v) poly-L-lysine-coated coverslips. Both cell types were prepared in serum-free RPMI 1640 medium containing 0.1% (w/v) BSA and 2 μg/mL PI. HBD-3 or BODIPY FL EDA-labeled HBD-3 was added directly to the imaging chamber to final concentration of 15 μM, via a capillary tube. In certain experiments, prior to imaging, cells were pre-stained with the membrane dye PKH67 as per manufacturer's instructions (Sigma-Aldrich) or transfected with expression vectors carrying GFP only or GFP-tagged Pleckstrin homology domain of phospholipase C-delta 1 (GFP-PH(PLCδ1)) (kindly provided by Christina Mitchell, Monash University, Australia), using Lipofectamine 3000 reagent (Invitrogen) as per manufacturer's instructions. For CLSM involving transfections, images were taken as 4×4 tiles over 30 min, and the resultant data for GFP and GFP-PH transfected cells were analysed by counting PI-positive cells.

In a further assay the test system is HUVEC cells. The assay can be described thus: Flow cytometry-based PI uptake assay, HUVEC. It is filed as cell-based, human. To be noted: 25 μM HBD-3, 37°C, 30 min, serum-free medium with 0.1% BSA. As for the experimental part:
(§3) Cells suspended at 1×10^6 cells/mL in serum-free medium containing 0.1% (w/v) bovine serum albumin (BSA) (Sigma-Aldrich) were treated with HBD-3 at 37°C for 30 min. Nucleic acid stain propidium iodide (PI) was then added to a final concentration of 1 μg/mL and cells subjected to flow cytometry analysis using BD FACSCanto II Flow Cytometer and BD FACSDiva Software v6.1.1 (BD Biosciences, San Jose, CA). For each flow cytometry reading, 10,000 cells, gated appropriately based on forward scattering and side scattering, were recorded. The resultant data were processed using FlowJo software (Tree Star, San Carlos, CA) to determine PI-positivity, which reflects the level of membrane permeabilisation. For lipid inhibition assays, 15 μM HBD-3 was pre-incubated with 50 μM synthetic lipids, including L-α-phosphatidic acid (PA), L-α-phosphatidylcholine (PC), L-α-phosphatidylethanolamine (PE), L-α-phosphatidylserine (PS), L-α-phosphatidylinositol-4-phosphate (PI(4)P), L-α-phosphatidylinositol-3,5-bisphosphate (PI(3,5)P2), L-α-phosphatidylinositol-4,5-bisphosphate (PI(4,5)P2) and L-α-phosphatidylinositol-3,4,5-trisphosphate (PI(3,4,5)P)3. All lipids were sourced from Avanti Polar Lipids, Alabaster, AL. […]
(Flow cytometry measures light scatter and fluorescence of single cells or particles in a stream.)

In assay [3] the test system is U937 cells. Kind of assay: Neomycin inhibition of membrane permeabilisation (PI uptake). In kind it is cell-based, human. To be noted: cells pre-treated with 10 mM neomycin, PI uptake by flow cytometry; effect overcome at higher HBD-3 concentrations. The protocol:
as §3

Assay [4] concerns U937 cells. Kind of assay: Flow cytometry-based PI uptake assay, U937. The note with it: 25 μM HBD-3, 37°C, 30 min, serum-free medium with 0.1% BSA. It is filed as cell-based, human. As for the experimental part: as §3
The nature of assay [5]: ATP-encapsulated liposome leakage assay, PC:PI(4,5)P2. To be noted: PC liposomes containing 5% PI(4,5)P2, concentration-dependent, compared with PC only. As for the experimental part:
as §2

Where no end group is shown, it is not given here.

With “human β-defensin 3 (GIINTLQKYYCRVRGGRCAVLSCLPKEEQIGKCSTRGRKCCRRKK; not fully specified; cysteine pairing not given here; UniProt P81534 23-67, looked up) [HBD-3, human β-defensin 3, cationic antimicrobial peptide, recombinantly expressed in P. pastoris]”, the “cytoplasmic ATP release” value in the assay with U937 cells [1] and with HeLa cells was “rapidly released” each time. Besides, the “ATP release from ATP-encapsulated liposomes” value in assay [2] is listed as “minimally induced ATP release”; in assay [5] it was “much higher level of ATP was released”. In the assay with U937 and HeLa cells, the “size of membrane blebs formed in PI-positive cells” value is above 10 μm. The PI-positive cells is given as 14.5% with HUVEC cells and “approximately 85%” with U937 cells [4]. The “susceptibility of neomycin pre-incubated cells to permeabilisation compared to untreated control” value with U937 cells [3] was “significantly less susceptible”.
